Reference: article PMC11845477, “Exploring the principles behind antibiotics with limited resistance” (Nature Communications, 2025)

Experiments:
[1] = system: E. coli ATCC 25922 (SEN) and E. coli NCTC13846 (MDR); assay: microbe, parasite or virus in culture; format: cell-based, Escherichia coli; settings: for MIC: across three biological replicates
Summary of the method: (§1)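 Broth microdilution in cation-adjusted Mueller-Hinton Broth 2 (except SCH79797), 11–16-step serial dilutions, 5 × 10^5 cells/mL, 37 °C with shaking for 18 h, 2 replicates. MIC is the lowest concentration giving complete growth inhibition (OD600 < 0.05); relative MIC = MIC evolved/MIC ancestor.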

[2] = system: A. baumannii ATCC 17978 (SEN) and A. baumannii ATCC BAA-1605 (MDR); assay: microbe, parasite or virus in culture; format: cell-based, Acinetobacter baumannii; settings: for MIC: across three biological replicates
Summary of the method: as §1

[3] = system: E. coli ATCC 25922 (SEN) and E. coli NCTC13846 (MDR); assay: Adaptive laboratory evolution (ALE), relative MIC of evolved lines; format: cell-based, Escherichia coli
Summary of the method: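 Ten parallel populations per antibiotic–ancestor pair were evolved in MHB at 37 °C, starting near 50% growth-inhibiting drug. Every 72 h they were passaged into 0.5–2.5× increasing concentrations, keeping the highest-drug well with OD600 > 0.2.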

[4] = EC-SEN (Escherichia coli ATCC 25922), evolved line 3
[5] = EC-SEN (Escherichia coli ATCC 25922), evolved line 4
[6] = EC-SEN (Escherichia coli ATCC 25922), evolved line 5
[7] = EC-SEN (Escherichia coli ATCC 25922), evolved line 7
[8] = EC-SEN (Escherichia coli ATCC 25922), evolved line 10

CC(C)c1ccc(Cn2ccc3c4c(N)nc(NC5CC5)nc4ccc32)cc1 [SCH79797]
4 µg/mL: MIC of ancestor ([1]; E. coli ATCC 25922 (EC-SEN), ancestor strain, sheet fig 2a) | MIC ([1]; Escherichia coli ATCC 25922 (EC-SEN)) | MIC of ancestor ([1]; ancestor EC-SEN (Escherichia coli ATCC 25922)) | MIC of ancestor ([2]; Acinetobacter baumannii ATCC 17978 (AB-SEN), ancestor strain, sheet fig 2a) | MIC ([2]; Acinetobacter baumannii ATCC 17978 (AB-SEN)) | MIC of ancestor ([2]; Acinetobacter baumannii ATCC BAA 1605 (AB-MDR), ancestor strain, sheet fig 2a) | MIC ([2]; Acinetobacter baumannii ATCC BAA-1605 (AB-MDR)) | MIC of ancestor ([2]; ancestor AB-MDR (Acinetobacter baumannii ATCC BAA 1605)) | MIC of ancestor ([2]; ancestor AB-SEN (Acinetobacter baumannii ATCC 17978))
8 µg/mL: MIC of evolved line ([3]; EC-SEN (E. coli ATCC 25922), evolved line 8 of the given antibiotic) | MIC of evolved line ([3]; EC-SEN (E. coli ATCC 25922), evolved line 9 of the given antibiotic)
16 µg/mL: MIC ([1]; Escherichia coli NCTC 13846 (EC-MDR)) | MIC of evolved line ([3]; EC-SEN (E. coli ATCC 25922), evolved line 1 of the given antibiotic) | MIC of evolved line ([3]; EC-SEN (E. coli ATCC 25922), evolved line 2 of the given antibiotic) | MIC of evolved line ([3]; EC-SEN (E. coli ATCC 25922), evolved line 3 of the given antibiotic) | MIC of evolved line ([3]; EC-SEN (E. coli ATCC 25922), evolved line 4 of the given antibiotic) | MIC of evolved line ([3]; EC-SEN (E. coli ATCC 25922), evolved line 5 of the given antibiotic) | MIC of evolved line ([3]; EC-SEN (E. coli ATCC 25922), evolved line 7 of the given antibiotic) | MIC of evolved line ([3]; EC-SEN (E. coli ATCC 25922), evolved line 10 of the given antibiotic)
4: Relative MIC ([3]; ALE, Escherichia coli ATCC 25922 (EC-SEN), evolved line 1) | Relative MIC ([3]; ALE, Escherichia coli ATCC 25922 (EC-SEN), evolved line 2) | Relative MIC ([3]; ALE, Escherichia coli ATCC 25922 (EC-SEN), evolved line 3) | Relative MIC ([3]; ALE, Escherichia coli ATCC 25922 (EC-SEN), evolved line 4) | Relative MIC ([3]; ALE, Escherichia coli ATCC 25922 (EC-SEN), evolved line 5) | Relative MIC ([3]; ALE, Escherichia coli ATCC 25922 (EC-SEN), evolved line 7) | Relative MIC ([3]; ALE, Escherichia coli ATCC 25922 (EC-SEN), evolved line 10) | Relative MIC ([3]; EC-SEN (E. coli ATCC 25922), evolved line 1 vs ancestor) | Relative MIC ([3]; EC-SEN (E. coli ATCC 25922), evolved line 2 vs ancestor) | Relative MIC ([3]; EC-SEN (E. coli ATCC 25922), evolved line 3 vs ancestor) | Relative MIC ([3]; EC-SEN (E. coli ATCC 25922), evolved line 4 vs ancestor) | Relative MIC ([3]; EC-SEN (E. coli ATCC 25922), evolved line 5 vs ancestor) | Relative MIC ([3]; EC-SEN (E. coli ATCC 25922), evolved line 7 vs ancestor) | Relative MIC ([3]; EC-SEN (E. coli ATCC 25922), evolved line 10 vs ancestor) | Relative MIC [3, 4] | Relative MIC [3, 5] | Relative MIC [3, 6] | Relative MIC [3, 7] | Relative MIC [3, 8] | Relative MIC ([3]; EC-SEN, Escherichia coli ATCC 25922, evolved line 1) | Relative MIC ([3]; EC-SEN, Escherichia coli ATCC 25922, evolved line 2) | Relative MIC ([3]; Escherichia coli ATCC 25922 (EC-SEN), evolved line 1) | Relative MIC ([3]; Escherichia coli ATCC 25922 (EC-SEN), evolved line 2) | Relative MIC ([3]; Escherichia coli ATCC 25922 (EC-SEN), evolved line 3) | Relative MIC ([3]; Escherichia coli ATCC 25922 (EC-SEN), evolved line 4) | Relative MIC ([3]; Escherichia coli ATCC 25922 (EC-SEN), evolved line 5) | Relative MIC ([3]; Escherichia coli ATCC 25922 (EC-SEN), evolved line 7) | Relative MIC ([3]; Escherichia coli ATCC 25922 (EC-SEN), evolved line 10)
0.6021 log10: Relative MIC (log10) [3, 4] | Relative MIC (log10) [3, 5] | Relative MIC (log10) [3, 6] | Relative MIC (log10) [3, 7] | Relative MIC (log10) [3, 8]
2: Relative MIC ([3]; ALE, Escherichia coli ATCC 25922 (EC-SEN), evolved line 8) | Relative MIC ([3]; ALE, Escherichia coli ATCC 25922 (EC-SEN), evolved line 9) | Relative MIC ([3]; EC-SEN (E. coli ATCC 25922), evolved line 8 vs ancestor) | Relative MIC ([3]; EC-SEN (E. coli ATCC 25922), evolved line 9 vs ancestor) | Relative MIC ([3]; EC-SEN (Escherichia coli ATCC 25922), evolved line 8) | Relative MIC ([3]; EC-SEN (Escherichia coli ATCC 25922), evolved line 9) | Relative MIC ([3]; Escherichia coli ATCC 25922 (EC-SEN), evolved line 8) | Relative MIC ([3]; Escherichia coli ATCC 25922 (EC-SEN), evolved line 9)
